Experiments:
[1] = pH of the compound as Mn plant nutrient source in water; cited from earlier work
[2] = at 25° C.
Excerpt: Manganese thiosulfate, also referred to herein as “MnTS”, is a liquid source of Mn with up to 20% concentration.

| Compound | respective pH [1] | pH of solution of manganese thiosulfate [2] | Mn concentration of saturated solution of MnTS (MnTS prepared by salt exchange of MnSO4 with calcium thiosulfate, evaporated to point of crystal formation, percent by weight) | Solubility of MnTS (saturated solution) (saturated solution, corresponding to measured Mn, percent by weight) | Maximum solubility of MnTS (solid from evaporation redissolved in aqueous solution at ambient temperature, calculated from Mn concentration) |
| --- | --- | --- | --- | --- | --- |
| manganese carbonate [MnCO3] | 6.4 | – | – | – | – |
| O=S(=O)([O-])[O-].[Mn+2] [MnSO4, manganese sulfate] | 2.8 | – | – | – | – |
| manganese thiosulfate [MnTS] | – | 5-6 | 5.85 % Mn | ~17 % MnTS | 17-18% |

— patent US7914763B1, “Process and apparatus for preparing manganese thiosulfate (MnTS) solution” (Tessenderlo Kerley, Inc., priority 2010, dated 2011)
